Key:
[1] = Quantum yield measurements; assay type: physicochemical; details: referred to Rhodamine B in EtOH, excitation 510 nm, emission integrated 540-800 nm
Method in brief: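 Integrated fluorescence emission from 540 to 800 nm was referenced to Rhodamine B in EtOH (Φ=0.70) after excitation at 510 nm. Quantum yield was calculated with correction for solvent refractive index and absorbance at the excitation wavelength.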

[2] = Spectroscopic properties of the BDM library (absorbance and emission maxima); assay type: physicochemical

Structure (SMILES) | φ (quantum yield) [1] | λmax (ABS) [2] | λmax (EM) [2]
CC1=CC(/C=C/c2ccc(Oc3ccc(F)cc3)cc2)=[N+]2C1=C(CCN)c1cccn1[B-]2(F)F [BDM-322] | 0.15 | 559 nm | 577 nm
CCOc1cccc(/C=C/C2=[N+]3C(=C(CCN)c4cccn4[B-]3(F)F)C(C)=C2)c1 [BDM-323] | 0.44 | 556 nm | 570 nm
COc1c(/C=C/C2=[N+]3C(=C(CCN)c4cccn4[B-]3(F)F)C(C)=C2)cc(C(C)(C)C)cc1C(C)(C)C [BDM-325] | 0.47 | 557 nm | 573 nm
CC1=CC(/C=C/c2ccc(OC(F)F)cc2)=[N+]2C1=C(CCN)c1cccn1[B-]2(F)F [BDM-326] | 0.71 | 554 nm | 565 nm
CC1=CC(/C=C/c2cc(OCc3ccccc3)cc(OCc3ccccc3)c2)=[N+]2C1=C(CCN)c1cccn1[B-]2(F)F [BDM-331] | 0.65 | 554 nm | 566 nm
CC1=CC(/C=C/c2ccc3c(c2)OC(F)(F)O3)=[N+]2C1=C(CCN)c1cccn1[B-]2(F)F [BDM-332] | 0.61 | 552 nm | 562 nm
CSc1ccccc1/C=C/C1=[N+]2C(=C(CCN)c3cccn3[B-]2(F)F)C(C)=C1 [BDM-333] | 0.30 | 557 nm | 575 nm
COc1ccc(/C=C/C2=[N+]3C(=C(CCN)c4cccn4[B-]3(F)F)C(C)=C2)cc1C [BDM-335] | 0.78 | 565 nm | 591 nm
CCOc1ccccc1/C=C/C1=[N+]2C(=C(CCN)c3cccn3[B-]2(F)F)C(C)=C1 [BDM-336] | 0.58 | 560 nm | 577 nm
CC1=CC(/C=C/c2c3ccccc3c(C)c3ccccc23)=[N+]2C1=C(CCN)c1cccn1[B-]2(F)F [BDM-340] | 0.11 | 534 nm | 541 nm
CC1=CC(/C=C/c2ccccc2Oc2ccc(F)cc2)=[N+]2C1=C(CCN)c1cccn1[B-]2(F)F [BDM-341] | 0.37 | 556 nm | 570 nm
CC1=CC(/C=C/c2cc(C)c(C)cc2C)=[N+]2C1=C(CCN)c1cccn1[B-]2(F)F [BDM-343] | 0.28 | 559 nm | 577 nm
CC1=CC(/C=C/c2cccc(OC(F)(F)C(F)F)c2)=[N+]2C1=C(CCN)c1cccn1[B-]2(F)F [BDM-345] | 0.22 | 551 nm | 564 nm
COc1ccc(/C=C/C2=[N+]3C(=C(CCN)c4cccn4[B-]3(F)F)C(C)=C2)c(OC)c1C [BDM-347] | 0.57 | 566 nm | 591 nm
COc1ccc(/C=C/C2=[N+]3C(=C(CCN)c4cccn4[B-]3(F)F)C(C)=C2)cc1[N+](=O)[O-] [BDM-350] | 0.14 | 556 nm | 571 nm
CC1=CC(/C=C/c2cccc(N3CCCCC3)c2[N+](=O)[O-])=[N+]2C1=C(CCN)c1cccn1[B-]2(F)F [BDM-356] | 0.03 | 573 nm | 682 nm
